Source: patent publication US20040067991A1, “Tetrahydrobenzothiazole analogues as neuroprotective agents” (priority 2003, published 2004)
Entries after “also recorded” stand apart in the source; their conditions may differ. Structures can show the parent of a compound that is named as a salt. Where two headings read alike, the source gives them in different places.

Experiments:
PC12 cells = test: Protection of PC12 cells against camptothecin-induced cell death (BCECF AM fluorescence); type: cell-based
Description: The 2-amino-4,5,6,7-tetrahydrobenzothiazole hydrogen iodide, 1-(4-methylphenyl)-2-(4,5,6,7-tetrahydro-2-imino-3(2H)-benzothiazolyl)-ethanone hydrobromide, and analogues were tested for their ability to protect PC12 cells against the toxic agent, camptothecin. PC12 cells were cultured in RPMI1640 media containing 10% horse serum and 5% fetal calf serum (37° C., pH 7.4) until confluent. Thereafter, 2.2×10^4 cells per mL were added to each trough of a 96 well plate (approximately 6,270 cells per well 285 μL) and were left to grow for 12 h. The media then was removed and was replaced by media with and without the compounds to be tested, including precursor, PFTα, and numerous analogues (concentration 100-400 nM, prepared in DMSO to a final dilution of 0.4%, 8 wells per concentration). Following 6 h of incubation, camptothecin (40 μM) was added to 4 of each 8 wells, and the cells were incubated for a further 24 h. Cells then were gently washed twice with phosphate buffered saline (PBS: 0.1 M, 37° C., pH 7.4) and were incubated in PBS containing the live-cell indicator dye, 2′,7′-bis(2-carboxyethey)-5-6-carboxyfluorescein AM ester (BCECF AM: 5 μM) (Molecular Probes, CA), for 45 min in minimal light. This fluorescent dye was taken up and retained by live cells. Finally, the cells were washed twice in PBS and their fluorescence then was quantified (excitation: 490 nm, emission: 535 nm, Perkin Elmer HTS 7000).
PC12 cell survival was also assessed. One hundred percent cell survival was determined from cells incubated in the absence of both any compound and camptothecin. […] Compound-induced toxicity was assessed by comparing cells treated with compound at various concentrations in the absence of camptothecin with cells incubated in the absence of both compound and camptothecin. […] Compound-induced cellular protection was assessed by comparing cells incubated with camptothecin with cells incubated with camptothecin in the presence of compound, in a concentration-dependent manner.

rat hippocampal neurons = test: Neuronal survival assay in cultured hippocampal neurons treated with camptothecin or etoposide; type: cell-based; conditions: for neuroprotection of hippocampal neurons against camptothecin (in words): 100 nM, added 1 h before camptothecin 5 μM; for protection of primary hippocampal cells against death induced by camptothecin and etoposide (in words) / neurons killed: camptothecin 5 μM, etoposide 2.5 μM; for neurons killed: hippocampal neurons
Description: 2-amino-4,5,6,7-tetrahydrobenzothiazole hydrogen and 1-(4-methylphenyl)-2-(4,5,6,7-tetrahydro-2-imino-3(2H)-benzothiazolyl)-ethanone hydrobromide and their analogues were assessed for their ability to protect rat hippocampal cells in culture from camptothecin ([…]).
Dissociated hippocampal cell cultures were established from embryonic day 18 Sprague-Dawley rats (Harlan, Inc.) as described previously. […] 77:220-28. Cells were grown in polyethyleneimine-coated plastic dishes or 22 m^2 glass coverslips, and incubated in Neurobasal medium containing B27 supplements, 2 mM L-glutamine, 25 mg/ml gentamycin, 1 mM Hepes (Gibco BRL) and 0.001% gentamicin sulfate. All experiments were performed using 9-10 day-old cultures. Camptothecin and etoposide (Signia) were prepared as 500× stocks in DMSO. Neuron survival was quantified by established methods. […] Briefly, viable neurons in premarked fields (10× objective) were counted before experimental treatment and at specified time points thereafter. Neurons with intact neurites of uniform diameter and soma with a smooth round appearance were considered viable. In contrast neurons with fragmented neurites and vacuolated soma were considered non-viable.

C57BL/6 mice given MPTP = test: MPTP model: striatal dopamine, serotonin and metabolites by HPLC; type: in vivo, mouse; conditions: striatal tissue, compound 2 mg/kg + MPTP, mean±SE, 4-6 mice/group
Description: The ability of PFTα (5) and compounds 5× (Z-1-117) and 13 (Z-1-143) to protect dopaminergic neurons against MPTP toxicity was tested. MPTP (20 mg/kg) was administered intraperitoneally to 2 month-old male C57BL/6 mice by four injections at two hour intervals to induce dopaminergic cell death.
In a separate experiment, levels of striatal dopamine, dopamine metabolites, serotonin, and serotonin metabolites were measured using HPLC analysis. Specifically, mice were euthanatized, and striatal tissue samples were removed and levels of dopamine, DOPAC, HVA, 5-HT, 5-HIAA were quantified. […] There was no significant difference in levels of serotonin or serotonin metabolites.

[1] = 6 h preincubation with compound, camptothecin 40 μM for 24 h; read-out: PD50; concentration of compounds required to induce 50% protection (PC50) of PC12 cells from camptothecin-induced cell-death
[2] = compounds 100-400 nM, camptothecin 40 μM 24 h

| Molecule | EC50 (PC12 cells; [1]) | also measured |
| --- | --- | --- |
| 1-(4-phenylphenyl)-2-(4,5,6,7-tertahydro-2-imino-3(2H)-benzothiazolyl)-ethanone hydrobromide [Compound 10] | 767 nM |  |
| 2-Imino-3-butyl-4,5,6,7-tetrahydro-3(2H)-benzothiazole hydrobromide [Compound 26] | 395 nM |  |
| 2-imino-3-(4′-cyanobenzyl)-4,5,6,7-tetrahydro-3(2H)-benzothiazole hydrobromide [Compound 21] | 418 nM |  |
| 2-imino-3-(4′-fluorobenzyl)-4,5,6,7-tetrahydro-3(2H)-benzothiazole hydrobromide [Compound 16] | 154 nM |  |
| 2-imino-3-(naphthalenylmethyl-4,5,6,7-tetrahydro-3(2H)-benzothiazole hydrobromide [Compound 24] | 318 nM |  |
| N=c1sc2c(n1CC(=O)c1ccc(F)cc1)CCCC2 [Compound 4, 1-(4-fluorophenyl)-2-(4,5,6,7-tertahydro-2-imino-3 (2H)-benzothiazolyl)-ethanone hydrobromide] | 379 nM |  |
| Br.COc1ccc(C(=O)Cn2c3c(sc2=N)CCCC3)cc1 [Compound 6, 1-(4-methoxylphenyl)-2-(4,5,6,7-tertahydro-2-imino-3(2H)-benzothiazolyl)-ethanone hydrobromide] | 182 nM | protection of PC12 cells against camptothecin-induced death (in words) (PC12 cells; [2]): highly potent |
| Br.COc1ccccc1C(=O)Cn1c2c(sc1=N)CCCC2 [Compound 7, 1-(2-methoxylphenyl)-2-(4,5,6,7-tertahydro-2-imino-3(2H)-benzothiazolyl)-ethanone hydrobromide] | 348 nM | protection of PC12 cells against camptothecin-induced death (in words) (PC12 cells; [2]): highly potent |
| Br.COc1cccc(C(=O)Cn2c3c(sc2=N)CCCC3)c1 [Compound 8, 1-(3-methoxylphenyl)-2-(4,5,6,7-tertahydro-2-imino-3(2H)-benzothiazolyl)-ethanone hydrobromide] | 418 nM | neuroprotection of hippocampal neurons against camptothecin (in words) (rat hippocampal neurons): significantly protected; protection of primary hippocampal cells against death induced by camptothecin and etoposide (in words) (rat hippocampal neurons; 24 h): highly potency |
| Br.N=c1sc2c(n1CC(=O)c1ccc(Cl)cc1)CCCC2 [Compound 9, 1-(4-chlorophenyl)-2-(4,5,6,7-tertahydro-2-imino-3(2H)-benzothiazolyl)ethanone hydrobromide] | 187 nM | protection of PC12 cells against camptothecin-induced death (in words) (PC12 cells; [2]): highly potent; neuroprotection of hippocampal neurons against camptothecin (in words) (rat hippocampal neurons): significantly protected; protection of primary hippocampal cells against death induced by camptothecin and etoposide (in words) (rat hippocampal neurons; 24 h): highly potency |
| N=c1sc2c(n1CC(=O)c1ccc([N+](=O)[O-])cc1)CCCC2 [Compound 11, 1-(4-nitrophenyl)-2-(4,5,6,7-tertahydro-2-imino-3(2H)-benzothiazolyl)ethanone hydrobromide] | 410 nM |  |
| Br.N=c1sc2c(n1CC(=O)c1ccccc1)CCCC2 [Compound 13, 1-phenyl-2-(4,5,6,7-tertahydro-2-imino-3(2H)-benzothiazolyl)-ethanone hydrobromide] | 169 nM | protection of PC12 cells against camptothecin-induced death (in words) (PC12 cells; compounds 100-400 nM, camptothecin 40 μM 24 h; hydrobromide): highly potent; also recorded: highly active in PC12 cells only; 5-HIAA (C57BL/6 mice given MPTP): 223 ± 45 pg/mg tissue weight; 5-HT (C57BL/6 mice given MPTP): 429 ± 42 pg/mg tissue weight; DOPAC (C57BL/6 mice given MPTP): 10 ± 10 pg/mg tissue weight; Dopamine (C57BL/6 mice given MPTP): 440 pg/mg tissue weight; HVA (C57BL/6 mice given MPTP): 91 ± 58 pg/mg tissue weight |
| Br.N=c1sc2c(n1CC1CC1)CCCC2 [Compound 15, 3-(cyclopropylmethyl)-4,5,6,7-tetrahydro-2(3H)-benzothiazolimine Hydrobromide] | 728 nM | neuroprotection of hippocampal neurons against camptothecin (in words) (rat hippocampal neurons): could not protect neurons effectively; neuroprotection of hippocampal neurons against etoposide (in words) (rat hippocampal neurons; added 1 h before etoposide 2.5 μM): activity comparable to PFTα; protection of primary hippocampal cells against death induced by camptothecin and etoposide (in words) (rat hippocampal neurons; 24 h): highly potency; neuronal survival (rat hippocampal neurons; pretreated with 100 nM of analogue, then camptothecin (5 μM), 24 h): 23% |
| N=c1sc2c(n1Cc1ccc(F)cc1F)CCCC2 [Compound 17, 2-imino-3-(2′,4′-difluorobenzyl)-4,5,6,7-tetrahydro-3(2H)-benzothiazole hydrobromide] | 93 nM |  |
| Cc1ccc(Cn2c3c(sc2=N)CCCC3)cc1 [Compound 18, 2-imino-3-(4′-methylbenzyl)-4,5,6,7-tetrahydro-3(2H)-benzothiazole hydrobromide] | 1000 nM |  |
| CC(C)(C)c1ccc(Cn2c3c(sc2=N)CCCC3)cc1 [Compound 19, 2-imino-3-(4′-tert-butylbenzyl)-4,5,6,7-tetrahydro-3(2H)-benzothiazole hydrobromide] | 315 nM |  |
| N=c1sc2c(n1Cc1ccc([N+](=O)[O-])cc1)CCCC2 [Compound 20, 2-imino-3-(4′-nitrobenzyl)-4,5,6,7-tetrahydro-3(2H)-benzothiazole hydrobromide] | 144 nM |  |
| N=c1sc2c(n1Cc1ccc(C(F)(F)F)cc1)CCCC2 [Compound 22, 2-imino-3-(4′-trifluorobenzyl)-4,5,6,7-tetrahydro-3(2H)-benzothiazole hydrobromide] | 327 nM |  |
| N=c1sc2c(n1CCc1ccccc1)CCCC2 [Compound 25, 2-imino-3-phenylethyl-4,5,6,7-tetrahydro-3(2H)-benzothiazole] | 1100 nM |  |
| Cc1ccc(C(=O)Cn2c3c(oc2=N)CCCC3)cc1 [Compound 27, 1-(4-methylphenyl)-2-(4,5,6,7-tetrahydro-2-imino-3(2H)-benzoxazolyl)ethanone hydrobromide] | 69 nM |  |
| CCC(=O)Cn1c2c(oc1=N)CCCC2 [Compound 28, 1-(4,5,6,7-tertahydro-2-imino-3(2H)-benzoxazolyl)-2-butanone hydrobromide] | 143 nM |  |
| Cc1ccc(-c2cn3c4c(sc3n2)CCCC4)cc1 [Compound 29, 2-(4′-methylphenyl)-5,6,7,8-tetrahydroimidazo[2,1-b]benzothiazole] | 214 nM |  |
| N=c1sc2c(n1Cc1cccc(Cn3c4c(sc3=N)CCCC4)n1)CCCC2 [Compound 30, 2,6-Bis[(4,5,6,7-tetrahydro-2-imino-3(2H)-benzothiazolyl)methyl]pyridine Dihydrobromide] | 133 nM |  |
| CC[C@@]1(O)C(=O)OCc2c1cc1n(c2=O)Cc2cc3ccccc3nc2-1 [camptothecin, reference compound] |  | neurons killed (rat hippocampal neurons): approximately 85% |
| COc1cc([C@@H]2c3cc4c(cc3[C@@H](O[C@@H]3O[C@@H]5CO[C@@H](C)O[C@H]5[C@H](O)[C@H]3O)[C@H]3COC(=O)[C@H]23)OCO4)cc(OC)c1O [etoposide, reference compound] |  | neurons killed (rat hippocampal neurons): approximately 85% |
| I.Nc1nc2c(s1)CCCC2 [precursor, 2-amino-4,5,6,7-tetrahydrobenzothiazole hydrogen iodide] |  | protection of PC12 cells against camptothecin-induced death (in words) (PC12 cells; [2]): low activity; EC50 (PC12 cells; read-out: PD50; concentration of compounds required to induce 50% protection (PC50) of PC12 cells from camptothecin-induced cell-death; 6 h preincubation with compound, camptothecin 40 μM for 24 h): 5750 nM; toxicity when administered alone to hippocampal cells (rat hippocampal neurons; concentrations up to 400 nM): neither PFTα (5) nor its precursor were toxic |
| ethyl 2-(4,5,6,7-tertahydro-2-imino-3(2H)-benzothiazolyl)-acetate hydrobromide [Compound 2] | 595 nM |  |
